From patent US20150080234A1, “Cell Patterning” (priority 2013, published 2015)

How the values were obtained:
[1] = target: CCR5 (Homo sapiens, UniProt P51681); conditions: lowers the effective CCR5 concentration; cited from earlier work
[2] = test system: cell motility; conditions: cited from earlier work
[3] = test system: ACH2 cells; experiment: virus production by ACH2 cells in micro-wells detected by WAP; assay type: cell-based; conditions: ACH2 cells stimulated vs unstimulated, all loading densities, FIG. 6(b)
Protocol: FIGS. 6(a)-(b) illustrate one embodiment of detection/analysis of latently infected T cells using WAP. That is, as shown, WAP can be applied to study functional characteristics, such as virus production, of cells loaded into micro-wells. ACH2 cells produce HIV virus when stimulated with the cytokine TNFα. […] These cells produce virus when stimulated with TNFα, which can be contained in the media. The target cell coated slide is incubated with the array, removed, then allowed to incubate while biological signal develops (e.g. GFP accumulation). […] The median percent infection is higher in the presence of TNFα for each ACH2 cell count. In addition to assaying viral production capability, functional characteristics of virus producing cells in the micro-wells, such as gene expression, surface marker expression, or secretion of biomolecules of interest could provide functional information about virally infected cells.

[4] = test system: GHOST cells; experiment: cell pattern maintenance / cell migration inhibition assay (media additives and hydrogels); assay type: cell-based
Protocol: One significant advantage afforded by WAP is the ability to an addressable link with stimuli with delayed signal development in cells, such as infection, proliferation, or migration. For implementation of the nano-neutralization assay, a technique for preventing pattern disruption was developed over time due to proliferation and migration of GHOST cells over the course of infection signal development. The effect of several media additives and hydrogels for the maintenance of patterns was tested.
Cell patterns were formed as described above. Arrays were imaged at 0, 24, and 48 hrs immediately after addition of 1 μM calcein AM live cell stain (Life Technologies) in PBS. Media additives were diluted directly into culture media at the indicated concentration. Cell proliferation (P) was calculated per block (4 wells per block) as the ratio of cells at time of imaging to the number of starting cells at time zero. Cell migration (M) was calculated as Nfull×P−Nwell, where Nfull is the number of cells per field of view, P is the proliferation rate, and Nwell is the number of cells per well.

Chain of CCR5 (P51681 whole entry): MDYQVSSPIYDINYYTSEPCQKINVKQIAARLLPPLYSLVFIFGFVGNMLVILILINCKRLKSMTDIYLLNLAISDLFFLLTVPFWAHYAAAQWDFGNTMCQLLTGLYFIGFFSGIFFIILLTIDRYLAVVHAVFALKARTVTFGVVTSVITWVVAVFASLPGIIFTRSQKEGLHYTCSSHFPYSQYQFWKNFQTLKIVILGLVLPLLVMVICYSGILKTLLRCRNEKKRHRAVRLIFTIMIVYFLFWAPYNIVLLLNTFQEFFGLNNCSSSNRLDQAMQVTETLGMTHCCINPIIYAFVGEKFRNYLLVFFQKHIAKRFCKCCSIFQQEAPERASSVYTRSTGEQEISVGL

Question: Which “effect on HIV-1 entry” value [1] does the source give for `Cc1ccc(-c2ccc3c(c2)C=C(C(=O)Nc2ccc(C[N+](C)(C)C4CCOCC4)cc2)CCC3)cc1.[Cl-]` [TAK779] here?
Answer: slows HIV-1 entry

Question: With `C[C@@H](N)[C@H]1CC[C@H](C(=O)Nc2ccncc2)CC1` [Y-27632] as the compound, how does the “effect on cell motility and adhesion” value [2] read?
Answer: inhibit cell motility but not adhesion

Question: Which “median percent infection of patterned cells” value [3] does the source give for TNFα here?
Answer: greater median percent infection

Question: Which “individual pattern maintenance for the time required for signal development” value ([4]; 10 μM) does the source give for `CS(=O)(=O)c1cccc(CNc2nc(Nc3ccc4c(c3)CCC(=O)N4)ncc2C(F)(F)F)c1` [PF-573228] here?
Answer: resulted in individual pattern maintenance

Question: And the “proliferation of patterned cells (Nt/Nto per block)” value ([4]; FIG. 15(b), 24 or 48 hours)?
Answer: reduced proliferation of patterned cells

Question: What about the “migration of patterned cells (number of cells migrating out of patterns)” value ([4]; FIG. 15(c), p<0.0001 Mann-Whitney U test) of the same compound?
Answer: reduced migration of patterned cells

Question: What about the “loss of cell patterns” value ([4]; added to media, 0 hr vs 24 hrs post patterning, FIG. 9(f)) of the same compound?
Answer: prevents loss of cell patterns

Question: What about the “effect on cell motility and adhesion” value [2] of the same compound?
Answer: inhibit cell motility but not adhesion
